In patent publication US8362031B2, “Lonidamine analogues and treatment of polycystic kidney disease” (University of Kansas, priority 2004, dated 2013):

System: male rats
Assay: Fertility trials following oral administration (challenge mating)
Type: in vivo, rat
Protocol: The following table illustrates the results of a single oral does of 6 mg/kg of RC-MC-110 orally to male rats. […] The ethyl alcohol was evaporated 10% prior to administration. The “embryos normal” and “embryos abnormal” represents the mean number of embryos per pregnant female. […]
The following table illustrates the results of a single oral does of four different doses of RC-MC-110 orally to male rats.

[1] = Table 9A, seven consecutive daily oral doses of 6 mg/day, week 1
[2] = Table 9A, seven consecutive daily oral doses of 6 mg/day, week 2
[3] = Table 9A, seven consecutive daily oral doses of 6 mg/day, week 3
[4] = Table 9A, seven consecutive daily oral doses of 6 mg/day, week 4
[5] = Table 9A, seven consecutive daily oral doses of 6 mg/day, week 5
[6] = Table 9A, seven consecutive daily oral doses of 6 mg/day, week 6
[7] = Table 9A, seven consecutive daily oral doses of 6 mg/day, week 7
[8] = Table 9A, seven consecutive daily oral doses of 6 mg/day, week 8
[9] = Table 9A, seven consecutive daily oral doses of 6 mg/day, week 9
[10] = Table 9A, seven consecutive daily oral doses of 6 mg/day, week 10
[11] = Table 9A, seven consecutive daily oral doses of 6 mg/day, week 12
[12] = Table 9A, seven consecutive daily oral doses of 6 mg/day, week 13
[13] = Table 9A, seven consecutive daily oral doses of 6 mg/day, week 14
[14] = Table 9A, seven consecutive daily oral doses of 6 mg/day, week 18
[15] = Table 9B, single oral dose of 6 mg/kg, week 1
[16] = Table 9B, single oral dose of 6 mg/kg, week 2
[17] = Table 9B, single oral dose of 6 mg/kg, week 3
[18] = Table 9B, single oral dose of 6 mg/kg, week 4
[19] = Table 9B, single oral dose of 6 mg/kg, week 5
[20] = Table 9B, single oral dose of 6 mg/kg, week 6
[21] = Table 9B, single oral dose of 6 mg/kg, week 7

O=C(O)/C=C/c1nn(Cc2ccc(Cl)cc2Cl)c2cc(C(F)(F)F)ccc12 [RC-MC-110, trans 3-[1-(2,4-dichlorobenzyl)-6-trifluoromethyl-1H-indazol-3-yl]-acrylic acid]
3: Males fertile (Table 9A, seven consecutive daily oral doses of 6 mg/day, week 4, 7 males mated)
0.3: Embryos abnormal (mean number per pregnant female) [2] | Embryos abnormal (mean number per pregnant female) [11] | Embryos abnormal (mean number per pregnant female) [12] | Embryos abnormal (mean number per pregnant female) [16]
15: Embryos normal (mean number per pregnant female) [1] | Embryos normal (mean number per pregnant female) [12] | Embryos normal (mean number per pregnant female) [15]
12: Embryos normal (mean number per pregnant female) [16]
0.5: Embryos abnormal (mean number per pregnant female) [4]
2: Males fertile (Table 9A, seven consecutive daily oral doses of 6 mg/day, week 3, 7 males mated) | Embryos normal (mean number per pregnant female) [10] | Males fertile (Table 9A, seven consecutive daily oral doses of 6 mg/day, week 12, 7 males mated) | Males fertile (Table 9A, seven consecutive daily oral doses of 6 mg/day, week 13, 7 males mated) | Males fertile (Table 9A, seven consecutive daily oral doses of 6 mg/day, week 14, 7 males mated) | Males fertile (Table 9A, seven consecutive daily oral doses of 6 mg/day, week 18, 7 males mated) | Embryos abnormal (mean number per pregnant female) [17] | Males fertile (Table 9B, single oral dose of 6 mg/kg, week 3, 7 males mated) | Males fertile (Table 9B, single oral dose of 6 mg/kg, week 7, 7 males mated)
13: Embryos normal (mean number per pregnant female) [2] | Embryos normal (mean number per pregnant female) [21]
14: Embryos normal (mean number per pregnant female) [11] | Embryos normal (mean number per pregnant female) [13] | Embryos normal (mean number per pregnant female) [14]
9: Embryos normal (mean number per pregnant female) [9]
0.2: Embryos abnormal (mean number per pregnant female) [1] | Embryos abnormal (mean number per pregnant female) [15]
6: Embryos normal (mean number per pregnant female) [17]
1: Embryos abnormal (mean number per pregnant female) [9] | Males fertile (Table 9A, seven consecutive daily oral doses of 6 mg/day, week 9, 7 males mated) | Males fertile (Table 9A, seven consecutive daily oral doses of 6 mg/day, week 10, 7 males mated) | Embryos abnormal (mean number per pregnant female) [20] | Males fertile (Table 9B, single oral dose of 6 mg/kg, week 6, 7 males mated) | Embryos abnormal (mean number per pregnant female) (Table 9B, single oral dose of 6 mg/kg, week 8)
0: Embryos abnormal (mean number per pregnant female) [3] | Embryos abnormal (mean number per pregnant female) [5] | Embryos normal (mean number per pregnant female) [5] | Males fertile (Table 9A, seven consecutive daily oral doses of 6 mg/day, week 5, 7 males mated) | Embryos abnormal (mean number per pregnant female) [6] | Embryos normal (mean number per pregnant female) [6] | Males fertile (Table 9A, seven consecutive daily oral doses of 6 mg/day, week 6, 7 males mated) | Embryos abnormal (mean number per pregnant female) [7] | Embryos normal (mean number per pregnant female) [7] | Males fertile (Table 9A, seven consecutive daily oral doses of 6 mg/day, week 7, 7 males mated) | Embryos abnormal (mean number per pregnant female) [8] | Embryos normal (mean number per pregnant female) [8] | Males fertile (Table 9A, seven consecutive daily oral doses of 6 mg/day, week 8, 6 males mated) | Embryos abnormal (mean number per pregnant female) [10] | Embryos abnormal (mean number per pregnant female) [13] | Embryos abnormal (mean number per pregnant female) [14] | Embryos abnormal (mean number per pregnant female) [18] | Embryos normal (mean number per pregnant female) [18] | Males fertile (Table 9B, single oral dose of 6 mg/kg, week 4, 7 males mated) | Embryos abnormal (mean number per pregnant female) [19] | Embryos normal (mean number per pregnant female) [19] | Males fertile (Table 9B, single oral dose of 6 mg/kg, week 5, 7 males mated) | Embryos abnormal (mean number per pregnant female) [21]
10: Embryos normal (mean number per pregnant female) [20]
7: Males fertile (Table 9A, seven consecutive daily oral doses of 6 mg/day, week 1, 7 males mated) | Males fertile (Table 9A, seven consecutive daily oral doses of 6 mg/day, week 2, 7 males mated) | Embryos normal (mean number per pregnant female) [3] | Embryos normal (mean number per pregnant female) [4] | Males fertile (Table 9B, single oral dose of 6 mg/kg, week 1, 7 males mated) | Males fertile (Table 9B, single oral dose of 6 mg/kg, week 2, 7 males mated)
